From US20040229872A1, “Substituted cyclohexane-1,4-diamine compounds with anti-diarrhea and peripheral analgesic activity” (Gruenenthal GmbH, priority 2001, published 2004)

Experiments:
[1] = tested on: mice; assay: PGE2-induced diarrhea in mice; format: in vivo
[2] = tested on: mice; settings: mouse, in vivo, po
[3] = tested on: mice; settings: mouse, in vivo
[4] = tested on: mice; assay: animal or person; settings: Mus musculus, iv, read-out: Analgesia, tail flick test in mice, i.v., ED50

Compound: CN(C)C(=O)C(CCN1CCC(O)(c2ccc(Cl)cc2)CC1)(c1ccccc1)c1ccccc1 [Loperamide, loperamide]
- ED50 ([1]; Mus musculus, iv, read-out: ED50 Value (mg/kg) i.v.): 0.41 mg/kg
- PGE2-diarrhea, mice, ED50 i.v. ([1]; mouse, in vivo, iv): ED50 i.v. = 0.41 μM
- PGE2-diarrhea, mice, ED50 p.o. ([1]; mouse, in vivo, po): ED50 p.o. = 9.34 μM
- Carbon passage, mice, ED50 p.o. [2]: ED50 p.o. = ˜15 μM
- action on the central nervous system (in words) [3]: always has a measurable action
- tail flick test in mice, i.v.: toxic side effects from ([3]; iv): toxic from 0.464
- ED50 [4]: > 0.562 mg/kg
